# Reference: ChEMBL document CHEMBL4118136, “The photodynamic activity of 131-[2'-(2-pyridyl)ethylamine] chlorin e6 photosensitizer in human esophageal cancer” (Bioorg Med Chem Lett, 2018)
# Activity calls are given as the source filed them. No cut-off for these calls is given here.
# Tests used:
# ECa-109 cell line [1] = experiment: Antitumor activity against human ECA109 cells xenografted in Balb/C nude mouse assessed as inhibition of tumor growth at 2 mg/kg, iv followed by irradiation at 100 J/cm2 and measured after 13 days relative to untreated control; type: functional; details: ECa-109, light or radiation study, 312 h, read-out: TGI
# [2] = Induction of singlet oxygen generation assessed as DPBF chemical oxidation in DMF solution incubated for 10 to 30 secs under irradiation by UV-Vis spectrophotometry; type: functional; details: TDE = time-dependent effect
# [3] = Induction of singlet oxygen generation assessed as DPBF chemical oxidation in DMF solution incubated for 10 to 30 secs under irradiation by UV-Vis spectrophotometry relative to mTHPC; type: functional
# [4] = Induction of singlet oxygen generation assessed as singlet oxygen quantum yield by measuring DPBF chemical oxidation in DMF solution incubated for 10 to 30 secs under irradiation by UV-Vis spectrophotometry; type: functional
# ECa-109 cell line [5] = experiment: Cytotoxicity in human ECA109 cells assessed as reduction in cell viability incubated for 24 hrs followed by irradiation with 0.5 J/cm2 red light by MTT assay; type: functional, cell-based; details: ECa-109, light or radiation study
# ECa-109 cell line [6] = experiment: Cytotoxicity in human ECA109 cells assessed as reduction in cell viability incubated for 24 hrs followed by irradiation with 1 J/cm2 red light by MTT assay; type: functional, cell-based; details: ECa-109, light or radiation study
# ECa-109 cell line [7] = experiment: Cytotoxicity in human ECA109 cells assessed as reduction in cell viability incubated for 24 hrs followed by irradiation with 1.5 J/cm2 red light by MTT assay; type: functional, cell-based; details: ECa-109, light or radiation study
# ECa-109 cell line [8] = experiment: Cytotoxicity in human ECA109 cells assessed as reduction in cell viability incubated for 24 hrs followed by irradiation with 2 J/cm2 red light by MTT assay; type: functional, cell-based; details: ECa-109, light or radiation study
# ECa-109 cell line [9] = experiment: Cytotoxicity in human ECA109 cells assessed as reduction in cell viability incubated for 24 hrs followed by irradiation with 2.5 J/cm2 red light by MTT assay; type: functional, cell-based; details: ECa-109, light or radiation study
# [10] = Drug uptake in human ECA109 cells at 0.5 uM incubated for 2 to 24 hrs by fluorescence spectrometry; type: ADME, cell-based; details: eca-109, 0.5 µM, TDE = time-dependent effect
# ECa-109 cell line [11] = experiment: Cytotoxicity in human ECA109 cells assessed as reduction in cell viability incubated for 24 hrs followed by irradiation with 0.5 to 2.5 J/cm2 red light by MTT assay; type: functional, cell-based
# [12] = Dark toxicity in human ECA109 cells assessed as reduction in cell viability at 0.1 to 0.9 uM incubated for 24 hrs under dark conditions by MTT assay; type: cell-based; details: eca-109, 24 h
# [13] = Drug accumulation in mitochondria of human ECA109 cells at 0.9 uM incubated for 4 hrs by mitotracker green dye based confocal microscopy; type: ADME; details: eca-109, 4 h
# [14] = Drug accumulation in lysosome of human ECA109 cells at 0.9 uM incubated for 4 hrs by Lyso tracker blue green dye based confocal microscopy; type: ADME, subcellular; details: eca-109, 4 h
# [15] = Drug accumulation in endoplasmic reticulum of human ECA109 cells at 0.9 uM incubated for 4 hrs by ER-green[DiOC6(3)] dye based confocal microscopy; type: ADME, subcellular; details: eca-109, 4 h
# [16] = Induction of apoptosis in human ECA109 cells assessed as viable cells level in absence of irradiation by Annexin V and propidium iodide staining based flow cytometry (reference value: 99.99%); type: cell-based, ECa-109; details: read-out: Activity
# ECa-109 cell line [17] = experiment: Induction of apoptosis in human ECA109 cells assessed as early apoptotic cells level in absence of irradiation by Annexin V and propidium iodide staining based flow cytometry; type: cell-based
# ECa-109 cell line [18] = experiment: Induction of apoptosis in human ECA109 cells assessed as late apoptotic cells level in absence of irradiation by Annexin V and propidium iodide staining based flow cytometry (reference value: 0.01%); type: cell-based
# ECa-109 cell line [19] = experiment: Induction of apoptosis in human ECA109 cells assessed as necrotic cells level in absence of irradiation by Annexin V and propidium iodide staining based flow cytometry; type: cell-based
# ECa-109 cell line [20] = experiment: Induction of apoptosis in human ECA109 cells assessed as viable cells level measured 2 hrs after 2 J/cm2 irradiation by Annexin V and propidium iodide staining based flow cytometry (reference value: 99.99%); type: functional
# ECa-109 cell line [21] = experiment: Induction of apoptosis in human ECA109 cells assessed as early apoptosis cells level measured 2 hrs after 2 J/cm2 irradiation by Annexin V and propidium iodide staining based flow cytometry; type: functional
# ECa-109 cell line [22] = experiment: Induction of apoptosis in human ECA109 cells assessed as late apoptosis cells level measured 2 hrs after 2 J/cm2 irradiation by Annexin V and propidium iodide staining based flow cytometry (reference value: 0.01%); type: functional
# ECa-109 cell line [23] = experiment: Induction of apoptosis in human ECA109 cells assessed as necrosis cells level measured 2 hrs after 2 J/cm2 irradiation by Annexin V and propidium iodide staining based flow cytometry; type: functional
# ECa-109 cell line [24] = experiment: Induction of apoptosis in human ECA109 cells assessed as viable cells level measured 4 hrs after 2 J/cm2 irradiation by Annexin V and propidium iodide staining based flow cytometry (reference value: 99.99%); type: functional
# ECa-109 cell line [25] = experiment: Induction of apoptosis in human ECA109 cells assessed as early apoptosis cells level measured 4 hrs after 2 J/cm2 irradiation by Annexin V and propidium iodide staining based flow cytometry; type: functional
# ECa-109 cell line [26] = experiment: Induction of apoptosis in human ECA109 cells assessed as late apoptosis cells level measured 4 hrs after 2 J/cm2 irradiation by Annexin V and propidium iodide staining based flow cytometry (reference value: 0.01%); type: functional
# ECa-109 cell line [27] = experiment: Induction of apoptosis in human ECA109 cells assessed as necrosis cells level measured 4 hrs after 2 J/cm2 irradiation by Annexin V and propidium iodide staining based flow cytometry; type: functional
# ECa-109 cell line [28] = experiment: Induction of apoptosis in human ECA109 cells assessed as viable cells level measured 8 hrs after 2 J/cm2 irradiation by Annexin V and propidium iodide staining based flow cytometry (reference value: 99.99%); type: functional
# ECa-109 cell line [29] = experiment: Induction of apoptosis in human ECA109 cells assessed as early apoptosis cells level measured 8 hrs after 2 J/cm2 irradiation by Annexin V and propidium iodide staining based flow cytometry; type: functional
# ECa-109 cell line [30] = experiment: Induction of apoptosis in human ECA109 cells assessed as late apoptosis cells level measured 8 hrs after 2 J/cm2 irradiation by Annexin V and propidium iodide staining based flow cytometry (reference value: 0.01%); type: functional
# ECa-109 cell line [31] = experiment: Induction of apoptosis in human ECA109 cells assessed as necrosis cells level measured 8 hrs after 2 J/cm2 irradiation by Annexin V and propidium iodide staining based flow cytometry; type: functional
# ECa-109 cell line [32] = experiment: Induction of apoptosis in human ECA109 cells assessed as reduction in pro-caspase-3 activity measured 2 hrs after 2 J/cm2 irradiation; type: functional, cell-based
# ECa-109 cell line [33] = experiment: Antitumor activity against human ECA109 cells xenografted in Balb/C nude mouse assessed as reduction in tumor cell per unit area at 2 mg/kg, iv followed by irradiation at 100 J/cm2 and measured after 13 days by hematoxylin-eosin staining based light microscopy relative to untreated control; type: functional, organism-based
# ECa-109 cell line [34] = experiment: Antitumor activity against human ECA109 cells xenografted in Balb/C nude mouse assessed as increase in cell differentiation at 2 mg/kg, iv followed by irradiation at 100 J/cm2 and measured after 13 days by hematoxylin-eosin staining based light microscopy relative to untreated control; type: functional, organism-based
# ECa-109 cell line [35] = experiment: Antitumor activity against human ECA109 cells xenografted in Balb/C nude mouse assessed as increase in megakaryocytes level at 2 mg/kg, iv followed by irradiation at 100 J/cm2 and measured after 13 days by hematoxylin-eosin staining based light microscopy relative to untreated control; type: functional, organism-based
# ECa-109 cell line [36] = experiment: Antitumor activity against human ECA109 cells xenografted in Balb/C nude mouse assessed as increase in nuclear fission level at 2 mg/kg, iv followed by irradiation at 100 J/cm2 and measured after 13 days by hematoxylin-eosin staining based light microscopy relative to untreated control; type: functional, organism-based
# ECa-109 cell line [37] = experiment: Induction of apoptosis in human ECA109 cells xenografted in Balb/C nude mouse at 2 mg/kg, iv followed by irradiation at 100 J/cm2 and measured after 13 days by TUNEL staining based light microscopy relative to untreated control; type: functional
smiles,measurement,setting,value
Oc1cccc(-c2c3nc(c(-c4cccc(O)c4)c4ccc([nH]4)c(-c4cccc(O)c4)c4nc(c(-c5cccc(O)c5)c5ccc2[nH]5)CC4)C=C3)c1 [TEMOPORFIN],inhibition in vivo at 2 mg/kg,ECa-109 cell line [1],79%
C=Cc1c(C)c2cc3nc(c(CC(=O)OC)c4[nH]c(cc5nc(cc1[nH]2)C(C)=C5CC)c(C)c4C(=O)NCCc1ccccn1)[C@@H](CCC(=O)OC)[C@@H]3C,Activity,[2],Tde
same,fold change (FC),[3],0.0193
same,Activity index,[4],0.98
same,IC50,ECa-109 cell line [5],1330 nM
same,IC50,ECa-109 cell line [6],640 nM
same,IC50,ECa-109 cell line [7],430 nM
same,IC50,ECa-109 cell line [8],380 nM
same,IC50,ECa-109 cell line [9],300 nM
same,Drug uptake,[10],Tde
same,Activity,ECa-109 cell line [11],Dose-dependent effect
same,Activity,[12],Non-Toxic
same,Drug uptake,[13],Active
same,Drug uptake,[14],Active
same,Drug uptake,[15],Active
same,viability,[16],89.8%
same,Activity,ECa-109 cell line [17],3.16%
same,Activity,ECa-109 cell line [18],4.7%
same,Activity,ECa-109 cell line [19],2.3%
same,Activity,ECa-109 cell line [20],15.19%
same,Activity,ECa-109 cell line [21],7.15%
same,Activity,ECa-109 cell line [22],68.34%
same,Activity,ECa-109 cell line [23],9.33%
same,Activity,ECa-109 cell line [24],13.1%
same,Activity,ECa-109 cell line [25],8.1%
same,Activity,ECa-109 cell line [26],70.93%
same,Activity,ECa-109 cell line [27],7.87%
same,Activity,ECa-109 cell line [28],4.92%
same,Activity,ECa-109 cell line [29],6.01%
same,Activity,ECa-109 cell line [30],85.78%
same,Activity,ECa-109 cell line [31],3.29%
same,Activity,ECa-109 cell line [32],Active
same,inhibition in vivo at 2 mg/kg,ECa-109 cell line [1],92%
same,Activity,ECa-109 cell line [33],Active
same,Activity,ECa-109 cell line [34],Active
same,Activity,ECa-109 cell line [35],Active
same,Activity,ECa-109 cell line [36],Active
same,Activity,ECa-109 cell line [37],40%
